Source: patent publication US9480754B2, “Phospholipid ether analogs as cancer-targeting drug vehicles” (Cellectar Biosciences, Inc., priority 2014, dated 2016)

Key:
[1] = tested on: human RL-251 tumor xenograft; test: Retention of 131I-CLR1404 by RL-251 tumor xenograft; assay type: in vivo, SCID mouse; conditions: FIG. 3
Source text: FIG. 3. Prolonged retention of ^131I-CLR1404 by human RL-251 tumor xenograft in SCID mouse.
CLR1404 is a PLE. Results obtained in a variety of tumor models indicate that CLR1404 is sequestered and selectively retained by cancer cells and cancer stem cells. […] CLR1404 localizes in both primary and metastatic lesions regardless of anatomic location including those found in lymph nodes. See Examples 3-8.

[2] = CLR1404 tumor selectivity across 60 tumor models; assay type: in vivo, rodent; conditions: athymic nude (Hsd:Athymic Nude-Foxn1nu or Crl:NU-Foxn1nu), tumor, intravenous; xenograft, orthotopic, transgenic and spontaneous rodent models; read-out: tumor models showing selective uptake and prolonged retention
Method: All described animal studies were performed according to animal protocols approved by the Institutional Animal Care and Use Committee. Female athymic nude mice (Hsd:Athymic Nude-Foxnlnu or Crl:NU-Foxnlnu, Charles River Laboratories) about 4 to 5 weeks of age, 16 to 18 g (n=6), were used for human tumor xenograft studies. Mice were anesthetized with isoflurane and injected subcutaneously with viable tumor cells in 100 μl of Dulbecco's PBS (or, for glioma cells, […] of PBS) into the right flank. Inoculum sizes were 1×10^6 (for renal, ovarian, glioma, pancreatic, prostate, and NSCLC models), […] (for colorectal and uterine models), or 3×10^6 (breast).
Radioiodinated ^124I-CLR1404 was tested in subcutaneous and orthotopic xenografts of 60 different spontaneous, transgenic, human, and rodent malignant cell lines and tumor types. […] Representative examples are of both human (FIG. 5A-5I) and rodent (FIG. 5J-M) tumors.

[3] = tested on: non-small cell lung carcinoma (NSCLC); test: Clinical imaging of advanced NSCLC patients with 131I-CLR1404; assay type: in vivo, human; conditions: two patients, injection of <1 mCi 131I-CLR1404, gamma imaging
Method: To date, two patients with advanced NSCLC were imaged after an injection of <1 mCi of ^131I-CLR1404. Blood and urine samples were collected at predetermined times, and gamma imaging performed at several time points following administration.
Materials and Methods: Following intravenous injection of iodine-131 labeled CLR1404 (1 mCi/20 μg), patients with advanced NSCLC where scanned at 3, 6, 24, 48, 96 h and at 7 and 11 days on a GE Maxxus dual Head SPECT scanner. Blood and urine samples were collected for pharmacokinetic analysis as well as clinical hematologic, renal, and hepatic bioanalysis.

PC-3 (Prostate) = test: Cell viability IC50, PC-3; assay type: cell-based
Method: The cell lines were then measured for cell viability and reported as IC50 for each treatment.

MDA-MB-468 cells [4] = test: Annexin V/PI flow cytometry, MDA-MB-468; assay type: cell-based; conditions: table title 72 hours, text: paclitaxel for 24 hours
Method: Debris was eliminated from this analysis.
MDA-MB-468 cells, were also treated with CLR conjugates (CLR1606 and CLR1607) for 72 hours and with geldanamycin (“GEL”) for 48 hours.
CLR conjugates appear to require a longer treatment period with cells to induce cell death.

MDA-MB-468 cells [5] = test: Annexin V/PI flow cytometry, MDA-MB-468; assay type: cell-based; conditions: 48 hrs

C[N+](C)(C)CCOP(=O)([O-])OCCCCCCCCCCCCCCCCCCc1ccc(I)cc1 [CLR1404, 18-(p-Iodophenyl)octadecyl phosphocholine]
time remaining in cancer cells [1]: up to 20 days
number of tumor models with selective uptake [2]: > 55
tumor uptake and retention in the primary lung tumor [3]: significant tumor uptake and retention

CC(=O)O[C@H]1C(=O)[C@@]2(C)[C@H]([C@H](OC(=O)c3ccccc3)[C@]3(O)C[C@H](OC(=O)[C@H](O)[C@@H](NC(=O)c4ccccc4)c4ccccc4)C(C)=C1C3(C)C)[C@]1(OC(C)=O)CO[C@@H]1C[C@@H]2O [Paclitaxel, paclitaxel, reference compound]
IC50 (PC-3 (Prostate)): 0.9 nM
Live (MDA-MB-468 cells [4]; MDA-MB-468, PTX 100 nM): 53.8 % of total cells
Live (MDA-MB-468 cells [4]; MDA-MB-468, PTX 1 uM): 48.9 % of total cells
Live (MDA-MB-468 cells [5]; MDA-MB-468, 100 nM): 77.9 % of total cells
Live (MDA-MB-468 cells [5]; MDA-MB-468, 1 uM): 73.3 % of total cells
